Data: PMC9403029, “Identifying Novel Drug Targets by iDTPnd: A Case Study of Kinase Inhibitors” (Genomics, Proteomics & Bioinformatics, 2021)

How the values were obtained:
[1] = system: CYP1A2; set-up: method as in earlier work; details: FDA Orange Books ref 65, 66; cited from earlier work
[2] = molecular target: T1, ERα (Homo sapiens, UniProt P03372); details: MST
T1 sequence (P03372 1-595): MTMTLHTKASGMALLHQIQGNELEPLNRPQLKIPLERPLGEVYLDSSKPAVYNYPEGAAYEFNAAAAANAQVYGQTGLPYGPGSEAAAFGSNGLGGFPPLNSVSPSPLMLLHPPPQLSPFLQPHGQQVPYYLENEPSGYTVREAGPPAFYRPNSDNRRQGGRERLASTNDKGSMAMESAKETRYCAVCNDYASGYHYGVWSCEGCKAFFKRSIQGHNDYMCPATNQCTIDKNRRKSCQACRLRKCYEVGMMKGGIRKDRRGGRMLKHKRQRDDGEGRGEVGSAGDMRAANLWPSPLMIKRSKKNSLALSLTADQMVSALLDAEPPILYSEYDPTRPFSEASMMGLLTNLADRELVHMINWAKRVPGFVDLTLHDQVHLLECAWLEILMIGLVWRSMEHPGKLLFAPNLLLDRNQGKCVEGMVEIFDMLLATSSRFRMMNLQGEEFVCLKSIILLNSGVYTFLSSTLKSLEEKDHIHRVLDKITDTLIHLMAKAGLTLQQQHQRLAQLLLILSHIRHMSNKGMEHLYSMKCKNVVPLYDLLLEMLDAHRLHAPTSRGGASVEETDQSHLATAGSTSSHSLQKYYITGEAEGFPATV

[3] = system: CYP2E1; set-up: method as in earlier work; details: FDA Orange Books ref 65, 66; cited from earlier work
[4] = system: CYP2A6; set-up: method as in earlier work; details: FDA Orange Books ref 65, 66; cited from earlier work

Q: For `Cc1ccc(Nc2nccc(N(C)c3ccc4c(C)n(C)nc4c3)n2)cc1S(N)(=O)=O` [Pazopanib, pazopanib], which IC50 [1] is on record?
A: The IC50 was 16 µM.

Q: With `CNC(=O)c1cc(Oc2ccc(NC(=O)Nc3ccc(Cl)c(C(F)(F)F)c3)cc2)ccn1` [Sorafenib, sorafenib] as the compound, how does the “interaction with ERα at detectable levels” value [2] read?
A: Its value is “did not interact”.

Q: Which results are given for `Cc1nc(Nc2ncc(C(=O)Nc3c(C)cccc3Cl)s2)cc(N2CCN(CCO)CC2)n1` [Dasatinib, dasatinib]?
A: IC50 [3]: > 50 µM; IC50 [4]: 35 µM
